Source: patent publication US20230031406A1, “COMPOUNDS AND COMPOSITIONS FOR TREATING CONDITIONS ASSOCIATED WITH NLRP ACTIVITY” (Novartis AG, priority 2018, published 2023)

test system: PMA-differentiated THP-1 cells; test: IL-1β production in PMA-differentiated THP-1 cells stimulated with gramicidin (hTHP-1 assay containing 2% fetal bovine serum; Procedures 1 and 2); type: cell-based, human; conditions: Homo sapiens, THP-1, Table B1; 2% fetal bovine serum; class symbols; read-out: Average IC50 of compounds in hTHP-1 assay: hTHP-1 IC50
In short: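 Human monocytic THP-1 cells, matured overnight with PMA at 20 ng/ml, are seeded in low-serum (2% FBS) RPMI. Test compounds, at final concentrations from 100 down to 0.0017 μM, precede gramicidin (5 μM, 2 h) by one hour. Released IL-1β is then determined by HTRF.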

| Structure (SMILES) | IC50 [µM] |
| --- | --- |
| Cc1c(C2CC2)nc2c(c1NC(=O)N=S(N)(=O)c1cc(C(C)(C)O)cs1)CCC2 (stereo not shown) [Compound 175, N′-((2-cyclopropyl-3-methyl-6,7-dihydro-5H-cyclopenta[b]pyridin-4-yl)carbamoyl)-4-(2-hydroxypropan-2-yl)thiophene-2-sulfonimidamide] | 0.2 to 1 |
| CC(C)(O)c1cnc(S(N)(=O)=NC(=O)Nc2c3c(nc4c2CCC4)CCC3)s1 (stereo not shown) [Compound 167] | 1 to 5 |
| CN(C)Cc1ccc(S(N)(=O)=NC(=O)Nc2c3c(nc4c2CCC4)CCC3)cc1 (stereo not shown) [Compound 130, 4-((dimethylamino)methyl)-N′-((1,2,3,5,6,7-hexahydrodicyclopenta[b,e]pyridin-8-yl)carbamoyl)benzenesulfonimidamide] | 5 to 30 |

same assay, conditions: Homo sapiens, THP-1, Table B2; 2% fetal bovine serum; class symbols; read-out: hTHP-1 IC50

| Structure (SMILES) | IC50 [µM] |
| --- | --- |
| CC(C)n1nc(S(N)(=O)=NC(=O)Nc2c3c(nc4c2CCC4(C)C)CCC3)cc1C(C)(C)O (stereo not shown) [Compound 615, N′-((3,3-dimethyl-1,2,3,5,6,7-hexahydrodicyclopenta[b,e]pyridin-8-yl)carbamoyl)-5-(2-hydroxypropan-2-yl)-1-isopropyl-1H-pyrazole-3-sulfonimidamide] | 1 to 5 |
| Cc1c(C(F)(F)F)nc2c(c1NC(=O)N=S(N)(=O)c1nn(C(F)F)cc1F)CCC2 (stereo not shown) [Compound 717] | 0.2 to 1 |
| CC(C)(O)c1cc(C#N)cc(S(N)(=O)=NC(=O)Nc2c3c(nc4c2CCC4(C)C)CCC3)c1 (stereo not shown) [Compound 674, 3-Cyano-N′-((3,3-dimethyl-1,2,3,5,6,7-hexahydrodicyclopenta[b,e]pyridin-8-yl)carbamoyl)-5-(2-hydroxypropan-2-yl)benzenesulfonimidamide] | 1 to 5 |
| CCn1ccc(S(N)(=O)=NC(=O)Nc2c3c(nc4c2CCC4(C)C)CCC3)n1 (stereo not shown) [Compound 603, N′-((3,3-dimethyl-1,2,3,5,6,7-hexahydrodicyclopenta[b,e]pyridin-8-yl)carbamoyl)-1-ethyl-1H-pyrazole-3-sulfonimidamide] | 0.04 to 0.2 |
| CC1CCc2c1nc1c(c2NC(=O)N=S(N)(=O)c2cn(C(C)C)cn2)CCC1 (single isomer, unassigned) [Compound 660d, (R, R) or (S, R) or (R, S) or (S, S)-1-isopropyl-N′-((3-methyl-1,2,3,5,6,7-hexahydrodicyclopenta [b,e]pyridin-8-yl)carbamoyl)-1H-imidazole-4-sulfonimidamide] | 5 to 30 |

same assay, conditions: Homo sapiens, THP-1, Table B2; 2% fetal bovine serum; numeric bounds; read-out: hTHP-1 IC50

| Structure (SMILES) | IC50 [µM] |
| --- | --- |
| CC(C)(O)c1cnc(S(N)(=O)=NC(=O)Nc2c3c(nc4c2CCC4O)CCC3)s1 (stereo not shown) [Compound 710] | > 30 |
| Cc1nc2c(c(NC(=O)N=[S@@](N)(=O)c3cnc(C(C)(C)O)s3)c1C1CC1)CCC2 [Compound 738] | > 30 |

same assay, conditions: Homo sapiens, THP-1, Table B3; hTHP-1 assay, 2% fetal bovine serum; class symbols; read-out: IC50

| Structure (SMILES) | IC50 [µM] |
| --- | --- |
| Cc1nc2c(c(NC(=O)N=S(N)(=O)c3cc(C(C)(C)O)cs3)c1C(F)(F)F)CCC2 (stereo not shown) [Example 566, 4-(2-Hydroxypropan-2-yl)-N′-((2-methyl-3-(trifluoromethyl)-6,7-dihydro-5H-cyclopenta[b]pyridin-4-yl)carbamoyl)thiophene-2-sulfonimidamide] | 0.2 to 1 |
| C[C@@H]1CCc2c1nc1c(c2NC(=O)N=[S@@](N)(=O)c2cc([C@@H](C)O)cs2)CCC1 (single isomer, unassigned) [Example 663, (R)-4-((R) or (S)-1-hydroxyethyl)-N′-(((R)-3-methyl-1,2,3,5,6,7-hexahydrodicyclopenta[b,e]pyridin-8-yl)carbamoyl) thiophene-2-sulfonimidamide] | 0.04 to 0.2 |
| Cc1c(C(F)(F)F)nc2c(c1NC(=O)N=S(N)(=O)c1ccn(C)n1)CCC2 (stereo not shown) [Example 633, 1-Methyl-N′-((3-methyl-2-(trifluoromethyl)-6,7-dihydro-5H-cyclopenta[b]pyridin-4-yl)carbamoyl)-1H-pyrazole-3-sulfonimidamide] | 5 to 30 |
| CC1(C)CCc2c1nc1c(c2NC(=O)N=[S@@](N)(=O)c2sc(C(O)(CO)CO)nc2CO)CCC1 [Compound 985a] | 1 to 5 |

same assay, conditions: Homo sapiens, THP-1, Table B3; hTHP-1 assay, 2% fetal bovine serum; numeric values; read-out: IC50

| Structure (SMILES) | IC50 [µM] |
| --- | --- |
| CO[C@H]1COc2c(S(N)(=O)=NC(=O)Nc3c(C)c(C(F)(F)F)nc4c3CCC4)cnn2C1 (single isomer, unassigned) [Example 655, (S) or (R)-(6R)-6-methoxy-N′-((3-methyl-2-(trifluoromethyl)-6,7-dihydro-5H-cyclopenta[b]pyridin-4-yl)carbamoyl)-6,7-dihydro-5H-pyrazolo[5,1-b][1,3] oxazine-3-sulfonimidamide] | > 30 |
| Cc1c(C(F)(F)F)nc2c(c1NC(=O)N=S(N)(=O)c1cnn3c1OCCC3)CCC2 (single isomer, unassigned) [Example 658, (S) or (R)-N′-((3-methyl-2-(trifluoromethyl)-6,7-dihydro-5H-cyclopenta[b]pyridin-4-yl)carbamoyl)-6,7-dihydro-5H-pyrazolo[5,1-b][1,3] oxazine-3-sulfonimidamide] | > 30 |

same assay, conditions: Table B1; 2% fetal bovine serum; class symbols; read-out: Average IC50 of compounds in hTHP-1 assay: hTHP-1 IC50

| Structure (SMILES) | IC50 [µM] |
| --- | --- |
| CC1CCc2c1nc1c(c2NC(=O)N=S(N)(=O)c2cc(C(C)(C)O)cs2)CCC1C [Compound 131aab, (R,R,S) and (R,S,R)-N′-((3,5-dimethyl-1,2,3,5,6,7-hexa-hydrodicyclo-penta[b,e]pyridin-8-yl)carbamoyl)-4-(2-hydroxypropan-2-yl)thiophene-2-sulfonimidamide] | 0.2 to 1 |
| CC(C)(O)c1cc(F)c(S(N)(=O)=NC(=O)Nc2c3c(nc4c2CCC4)CCC3)s1 (single isomer, unassigned) [Compound 105a, (R) or (S)-3-fluoro-N′-((1,2,3,5,6,7-hexahydro-dicyclopenta[b,e]pyridin-8-yl)carbamoyl)-5-(2-hydroxypropan-2-yl)thio-phene-2-sulfonimidamide] | 0.04 to 0.2 |
| CC1CCc2c1nc1c(c2NC(=O)N=S(N)(=O)c2sc(C(C)(C)O)cc2F)CCC1 (single isomer, unassigned) [Compound 103ab, (S,S) or (S,R)-3-fluoro-5-(2-hydroxypropan-2-yl)-N′-((3-methyl-1,2,3,5,6,7-hexahydrodicyclo-penta[b,e]pyridin-8-yl)carbamoyl)thiophene-2-sulfonimidamide] | 5 to 30 |
| CC(C)(O)c1cc(F)c(S(N)(=O)=NC(=O)Nc2c3c(nc4c2CCC4(C)C)CCC3)s1 (single isomer, unassigned) [Compound 102a, (S) or (R)-N′-((3,3-dimethyl-1,2,3,5,6,7-hexahydro-dicyclopenta[b,e]pyridin-8-yl)carbamoyl)-3-fluoro-5-(2-hydroxy-propan-2-yl)thiophene-2-sulfonimidamide] | 1 to 5 |

same assay, conditions: Table B2; 2% fetal bovine serum; class symbols; read-out: hTHP-1 IC50

| Structure (SMILES) | IC50 [µM] |
| --- | --- |
| CC1(C)CCc2c1nc1c(c2NC(=O)N=S(N)(=O)c2ccn(-c3ccccc3)n2)CCC1 (single isomer, unassigned) [Compound 659a, (S) or (R)-N′-((3,3-dimethyl-1,2,3,5,6,7-hexahydrodicyclopenta [b,e]pyridin-8-yl)carbamoyl)-1-phenyl-1H-pyrazole-3-sulfonimidamide] | 5 to 30 |
| CCC1CCc2c1nc1c(c2NC(=O)N=S(N)(=O)c2sc(C(C)(C)O)cc2F)CCC1 (stereo not shown) [Compound 671, N′-((3-ethyl-1,2,3,5,6,7-hexahydrodicyclopenta[b,e]pyridin-8-yl)carbamoyl)-3-fluoro-5-(2-hydroxypropan-2-yl)thiophene-2-sulfonimidamide] | 1 to 5 |
| Cc1cc(S(N)(=O)=NC(=O)Nc2c3c(nc4c2CCC4)CCC3)sc1C(C)(C)O (single isomer, unassigned) [Compound 692b, (R) or (S)-N′-((1,2,3,5,6,7-hexahydrodicyclopenta [b,e]pyridin-8-yl)carbamoyl)-5-(2-hydroxypropan-2-yl)-4-methylthiophene-2-sulfonimidamide] | 1 to 5 |

same assay, conditions: Table B3; hTHP-1 assay, 2% fetal bovine serum; class symbols; read-out: IC50

| Structure (SMILES) | IC50 [µM] |
| --- | --- |
| CCn1ccc(S(N)(=O)=NC(=O)Nc2c3c(nc4c2CCC42CC2)CCC3)n1 (single isomer, unassigned) [Example 687, (R) or (S)-1-Ethyl-N′-((1′,5′,6′,7′-tetrahydro-2′H-spiro[cyclopropane-1,3′-dicyclopenta[b,e]pyridin]-8′-yl)carbamoyl)-1H-pyrazole-3-sulfonimidamide] | 0.2 to 1 |

same assay, conditions: Table B4; 2% fetal bovine serum; class symbols; read-out: hTHP-1 IC50

| Structure (SMILES) | IC50 [µM] |
| --- | --- |
| Cc1c(C(F)(F)F)nc2c(c1NC(=O)N=S(N)(=O)c1nn(C(C)C)cc1F)CCC2 (single isomer, unassigned) [Example 789, (R) or (S)-4-fluoro-1-isopropyl-N′-((3-methyl-2-(trifluoromethyl)-6,7-dihydro-5H-cyclopenta[b]pyridin-4-yl)carbamoyl)-1H-pyrazole-3-sulfonimidamide] | 0.04 to 0.2 |
| CCn1cc(F)c(S(N)(=O)=NC(=O)Nc2c3c(nc(C)c2-c2ccccc2)CCC3)n1 (single isomer, unassigned) [Example 769, (R) or (S)-1-ethyl-4-fluoro-N′-((2-methyl-3-phenyl-6,7-dihydro-5H-cyclopenta[b]pyridin-4-yl)carbamoyl)-1H-pyrazole-3-sulfonimidamide] | 5 to 30 |
| CCc1c(C(F)(F)F)nc2c(c1NC(=O)N=S(N)(=O)c1nn(CC)cc1F)CCC2 (single isomer, unassigned) [Example 771, (R) or (S)-1-ethyl-N′-((3-ethyl-2-(trifluoromethyl)-6,7-dihydro-5H-cyclopenta[b]pyridin-4-yl)carbamoyl)-4-fluoro-1H-pyrazole-3-sulfonimidamide] | 0.2 to 1 |
| CCn1cc(F)c(S(N)(=O)=NC(=O)Nc2c3c(nc4c2CCC4)CCC3)n1 (single isomer, unassigned) [Example 761, (R) or (S)-1-ethyl-4-fluoro-N′-((1,2,3,5,6,7-hexahydrodicyclopenta[b,e]pyridin-8-yl)carbamoyl)-1H-pyrazole-3-sulfonimidamide] | 0.04 to 0.2 |
